Reference: ChEMBL document CHEMBL1201862, “PubChem BioAssay data set” (2004)
Activity calls are given as the source filed them.

Tests used:
Type in all cases: functional
[1] = biological target: T1, High affinity choline transporter 1 (Homo sapiens, UniProt Q9GZV3); assay: human choline transporter blockers, potency – cell-based, 10-point CRC, membrane potential dye, dose response (AID 588401);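 also: membrane potential dye fluorescence of choline-evoked depolarization via CHT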
T1 sequence (Q9GZV3 whole entry): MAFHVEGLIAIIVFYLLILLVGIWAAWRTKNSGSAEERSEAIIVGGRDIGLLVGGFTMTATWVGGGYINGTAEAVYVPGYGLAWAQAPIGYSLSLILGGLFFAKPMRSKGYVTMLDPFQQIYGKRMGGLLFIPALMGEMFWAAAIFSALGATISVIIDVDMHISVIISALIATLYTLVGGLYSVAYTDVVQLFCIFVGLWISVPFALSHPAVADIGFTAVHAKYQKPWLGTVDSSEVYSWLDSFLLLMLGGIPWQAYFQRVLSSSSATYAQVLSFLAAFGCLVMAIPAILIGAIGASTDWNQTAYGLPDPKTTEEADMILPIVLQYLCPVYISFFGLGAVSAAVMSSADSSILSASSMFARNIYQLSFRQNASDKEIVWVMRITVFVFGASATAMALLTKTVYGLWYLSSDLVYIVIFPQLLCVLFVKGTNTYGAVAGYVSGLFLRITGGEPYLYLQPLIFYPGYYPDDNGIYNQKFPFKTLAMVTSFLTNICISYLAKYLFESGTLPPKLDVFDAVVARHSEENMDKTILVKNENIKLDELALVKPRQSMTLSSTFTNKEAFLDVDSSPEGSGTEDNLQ

[2] = biological target: T1, High affinity choline transporter 1; assay: human choline transporter radiolabel uptake blockers – cell-based, 3H-choline uptake, CHT LV-AA trafficking mutant, CRC, dose response (AID 602208)
[3] = biological target: T1, High affinity choline transporter 1; assay: human choline transporter blockers, potency – cell-based, 5-point CRC, membrane potential dye, dose response (AID 504840)

Measured: IC50

COc1ccc(C(=O)NCc2nc(C)c(C)s2)cc1OC1CCN(C(C)C)CC1
active: [1] 761 nM | [2] 303 nM | [3] 1320 nM
